Source: ChEMBL document CHEMBL3044631, “Synthesis of 2-[4,5-dimethyl-1-(phenylamino)-1H-imidazol-2-ylthio]-N-(thiazole-2-yl)acetamide derivatives and their anticancer activities” (2013)

Legend:
Type in all cases: functional
IGROV-1 = assay: Anticancer activity against Homo sapiens (human) IGROV1 cells assessed as cell growth promotion at 10 uM after 48 hr by SRB assay
T47D [1] = assay: Anticancer activity against Homo sapiens (human) T47D cells assessed as cell growth promotion at 10 uM after 48 hr by SRB assay
MDA-MB-231 = assay: Anticancer activity against Homo sapiens (human) MDA-MB-231/ATCC cells assessed as cell growth promotion at 10 uM after 48 hr by SRB assay
MCF7 = assay: Anticancer activity against Homo sapiens (human) MCF7 cells assessed as cell growth promotion at 10 uM after 48 hr by SRB assay
UO-31 = assay: Anticancer activity against Homo sapiens (human) UO31 cells assessed as cell growth promotion at 10 uM after 48 hr by SRB assay
SN12C = assay: Anticancer activity against Homo sapiens (human) SN12C cells assessed as cell growth promotion at 10 uM after 48 hr by SRB assay
786-0 = assay: Anticancer activity against Homo sapiens (human) 786-0 cells assessed as cell growth promotion at 10 uM after 48 hr by SRB assay
SF-539 [2] = assay: Anticancer activity against Homo sapiens (human) SF539 cells after 48 hr by SRB assay; conditions: SF-539, 48 h
SF-268 = assay: Anticancer activity against Homo sapiens (human) SF268 cells after 48 hr by SRB assay; conditions: SF-268, 48 h
SF-295 = assay: Anticancer activity against Homo sapiens (human) SF295 cells after 48 hr by SRB assay; conditions: SF-295, 48 h
SW-620 = assay: Anticancer activity against Homo sapiens (human) SW620 cells after 48 hr by SRB assay; conditions: SW-620, 48 h
KM12 = assay: Anticancer activity against Homo sapiens (human) KM12 cells after 48 hr by SRB assay; conditions: KM12, 48 h
HCT-15 = assay: Anticancer activity against Homo sapiens (human) HCT15 cells assessed as cell growth promotion at 10 uM after 48 hr by SRB assay
HCT-116 = assay: Anticancer activity against Homo sapiens (human) HCT116 cells assessed as cell growth promotion at 10 uM after 48 hr by SRB assay
EKVX = assay: Anticancer activity against Homo sapiens (human) EKVX cells assessed as cell growth promotion at 10 uM after 48 hr by SRB assay
RPMI-8226 = assay: Anticancer activity against Homo sapiens (human) RPMI8226 cells assessed as cell growth promotion at 10 uM after 48 hr by SRB assay
LOX IMVI = assay: Anticancer activity against Homo sapiens (human) LOXIMVI cells assessed as cell growth promotion at 10 uM after 48 hr by SRB assay
U-251 [3] = assay: Anticancer activity against Homo sapiens (human) U251 cells assessed as cell growth promotion at 10 uM after 48 hr by SRB assay
SNB-75 [4] = assay: Anticancer activity against Homo sapiens (human) SNB75 cells assessed as cell growth promotion at 10 uM after 48 hr by SRB assay
SNB-19 [5] = assay: Anticancer activity against Homo sapiens (human) SNB19 cells assessed as cell growth promotion at 10 uM after 48 hr by SRB assay
SF-539 [6] = assay: Anticancer activity against Homo sapiens (human) SF539 cells assessed as cell growth promotion at 10 uM after 48 hr by SRB assay
HT-29 = assay: Anticancer activity against Homo sapiens (human) HT-29 cells assessed as cell growth promotion at 10 uM after 48 hr by SRB assay
NCI-H460 = assay: Anticancer activity against Homo sapiens (human) NCI-H460 cells assessed as cell growth promotion at 10 uM after 48 hr by SRB assay
T47D [7] = assay: Anticancer activity against Homo sapiens (human) T47D cells after 48 hr by SRB assay
NCI/ADR-RES = assay: Anticancer activity against Homo sapiens (human) NCI/ADR-RES cells after 48 hr by SRB assay
OVCAR-3 = assay: Anticancer activity against Homo sapiens (human) OVCAR3 cells after 48 hr by SRB assay; conditions: OVCAR-3, 48 h
OVCAR-4 = assay: Anticancer activity against Homo sapiens (human) OVCAR4 cells after 48 hr by SRB assay; conditions: OVCAR-4, 48 h
UACC-62 = assay: Anticancer activity against Homo sapiens (human) UACC62 cells after 48 hr by SRB assay; conditions: UACC-62, 48 h
MDA-MB-435 = assay: Anticancer activity against Homo sapiens (human) MDA-MB-435 cells after 48 hr by SRB assay; conditions: MDA-MB-435, 48 h
M14 = assay: Anticancer activity against Homo sapiens (human) M14 cells after 48 hr by SRB assay; conditions: M14, 48 h
U-251 [8] = assay: Anticancer activity against Homo sapiens (human) U251 cells after 48 hr by SRB assay; conditions: U-251, 48 h
SNB-19 [9] = assay: Anticancer activity against Homo sapiens (human) SNB19 cells after 48 hr by SRB assay; conditions: SNB-19, 48 h
SNB-75 [10] = assay: Anticancer activity against Homo sapiens (human) SNB75 cells after 48 hr by SRB assay; conditions: SNB-75, 48 h
CAKI-1 = assay: Anticancer activity against Homo sapiens (human) CAKI-1 cells after 48 hr by SRB assay; conditions: CAKI-1, 48 h
HL-60(TB) = assay: Anticancer activity against Homo sapiens (human) HL-60(TB) cells assessed as cell growth promotion at 10 uM after 48 hr by SRB assay

COc1ccc(Nn2c(SCC(=O)Nc3nc(-c4ccc(Cl)cc4)cs3)nc(C)c2C)cc1
Activity (IGROV-1): 70.85% | Activity (T47D [1]): 39.43% | Activity (MDA-MB-231): 79.71% | Activity (MCF7): 16.16% | Activity (UO-31): 39.41% | Activity (SN12C): 67.16% | Activity (786-0): 59.54% | GI50 (SF-539 [2]): 4.15 µM | LC50 (concentration killing 50% of cells) (SF-539 [2]): > 100 µM | TGI (SF-539 [2]): > 100 µM | GI50 (SF-268): 2.81 µM | LC50 (SF-268): > 100 µM | TGI (SF-268): > 100 µM | GI50 (SF-295): 2.18 µM | LC50 (SF-295): > 100 µM | TGI (SF-295): > 100 µM | GI50 (SW-620): 4.78 µM | LC50 (concentration killing 50% of cells) (SW-620): > 100 µM | TGI (SW-620): > 100 µM | GI50 (KM12): 1.84 µM | LC50 (concentration killing 50% of cells) (KM12): > 100 µM | TGI (KM12): 11.1 µM | Activity (HCT-15): 59.76% | Activity (HCT-116): 27.81% | Activity (EKVX): 41.94% | Activity (RPMI-8226): 35.7% | Activity (LOX IMVI): 38.91% | Activity (U-251 [3]): 43.51% | Activity (SNB-75 [4]): 56.63% | Activity (SNB-19 [5]): 79.24% | Activity (SF-539 [6]): 79.14% | Activity (HT-29): 30.12% | Activity (NCI-H460): 39.32% | GI50 (T47D [7]): 1.23 µM | TGI (T47D [7]): 8.04 µM | CC50 (T47D [7]; read-out: LC50 (the source's name)): > 100 µM | GI50 (NCI/ADR-RES): 2.89 µM | LC50 (NCI/ADR-RES): > 100 µM | TGI (NCI/ADR-RES): > 100 µM | GI50 (OVCAR-3): 3.13 µM | LC50 (50% lethal concentration) (OVCAR-3): > 100 µM | TGI (OVCAR-3): 24.2 µM | GI50 (OVCAR-4): 4.02 µM | LC50 (concentration killing 50% of starting cells) (OVCAR-4): > 100 µM | TGI (OVCAR-4): > 100 µM | GI50 (UACC-62): 3.62 µM | LC50 (UACC-62): > 100 µM | TGI (UACC-62): > 100 µM | GI50 (MDA-MB-435): 3.22 µM | LC50 (concentration killing 50% of cells) (MDA-MB-435): > 100 µM | TGI (MDA-MB-435): > 100 µM | GI50 (M14): 3.02 µM | LC50 (M14): > 100 µM | TGI (M14): > 100 µM | GI50 (U-251 [8]): 4.03 µM | LC50 (lethal concentration, 50% net cell kill) (U-251 [8]): > 100 µM | TGI (U-251 [8]): > 100 µM | GI50 (SNB-19 [9]): 6.2 µM | LC50 (SNB-19 [9]): > 100 µM | TGI (SNB-19 [9]): > 100 µM | GI50 (SNB-75 [10]): 4.8 µM | LC50 (SNB-75 [10]): > 100 µM | TGI (SNB-75 [10]): > 100 µM | GI50 (CAKI-1): 2.16 µM | LC50 (concentration killing 50% of cells) (CAKI-1): > 100 µM | TGI (CAKI-1): > 100 µM

Cc1nc(SCC(=O)Nc2nccs2)n(Nc2ccc(Cl)cc2)c1C
Activity (IGROV-1): 126.1% | Activity (T47D [1]): 91.74% | Activity (MDA-MB-231): 98.69% | Activity (MCF7): 104.33% | Activity (UO-31): 86.43% | Activity (SN12C): 96.39% | Activity (786-0): 111.66% | Activity (HCT-15): 102.77% | Activity (HCT-116): 94.47% | Activity (EKVX): 123.2% | Activity (RPMI-8226): 104.54% | Activity (HL-60(TB)): 95.84% | Activity (LOX IMVI): 101.8% | Activity (U-251 [3]): 108.53% | Activity (SNB-75 [4]): 92.05% | Activity (SNB-19 [5]): 121.25% | Activity (SF-539 [6]): 90.1% | Activity (HT-29): 108.32% | Activity (NCI-H460): 106%

CCOC(=O)c1csc(NC(=O)CSc2nc(C)c(C)n2Nc2ccc(C)cc2)n1
Activity (IGROV-1): 95.15% | Activity (T47D [1]): 57.89% | Activity (MDA-MB-231): 62.5% | Activity (MCF7): 80.14% | Activity (UO-31): 62.65% | Activity (SN12C): 62.75% | Activity (786-0): 83.82% | Activity (HCT-15): 98.05% | Activity (HCT-116): 68.84% | Activity (EKVX): 99.66% | Activity (RPMI-8226): 72.05% | Activity (HL-60(TB)): 77.24% | Activity (LOX IMVI): 77.98% | Activity (U-251 [3]): 76.07% | Activity (SNB-75 [4]): 83.76% | Activity (SNB-19 [5]): 75.4% | Activity (SF-539 [6]): 73.62% | Activity (HT-29): 52.44% | Activity (NCI-H460): 109.11%
